Patent US20180360953A1 (priority 2015, published 2018)

Test system: PA-specific Ab responses
Parameters: species or system mice
Conditions: mouse, in vivo, ip

Cc1c(-c2ccnn2C)cc(C(=O)NCc2ccc(S(C)(=O)=O)cn2)c(=O)n1-c1cccc(C(F)(F)F)c1 [Alvelestat, alvelestat]
High affinity PA-specific serum IgG1 and IgA Ab responses: promotes high affinity Abs
